From US8871735B2, “Methods and compositions for providing cardiac protection” (University of Medicine and Dentistry of New Jersey, priority 2008, dated 2014)

Tests used:
[1] = test system: isolated perfused rat hearts; details: cited from earlier work
patients = details: BHAT; cited from earlier work
[2] = test system: C57Bl/6 mice, chronic ISO infusion; assay: Chronic ISO infusion heart failure model; assay type: in vivo, mouse; details: for ISO-induced decrease in LVEF (and FS): ISO 60 mg/kg/d 7 days, Ara-Ade 20 and 100 mg/kg/day, 2′5′ ddAdo 20 mg/kg/day
Source text: (§1) ISO with or without AC5 inhibitors were chronically infused with osmotic mini-pump implanted subcutaneously at indicated doses for 1 week in c57Bl/6 mice. Mice were then subjected to echocardiography (a) and the hearts were removed and subjected to pathological examinations such as myocardial apoptosis (b) and fibrosis (c). n=4-8.
(§2) In C57Bl/6 mice, ISO with or without AC5 inhibitors or metoprolol were chronically infused with an osmotic mini-pump at the indicated doses for 1 week. Mice were then subjected to echocardiography (a) and heart tissue were subjected to a myocardial apoptosis assay (b). *, p<0.01 vs vehicle. #, p<0.05 vs vehicle. .dagger., p<0.01 vs ISO. .dagger-dbl., p<0.05 vs ISO. n=4-15. […] Comparisons between multiple groups were made using ANOVA with post-hoc tests.
Tenofovir diphosphate (PMPA-PP), zidovudine monophosphate (MP), zidovudine diphosphate (PP), zidovudine triphosphate (TP), famciclovir penciclovir and valaciclovir were purchased from Moravek. Formycin A (FMA) and Formycin B (FMB) were purchased from Berry and Associates. All other reagents were from Sigma unless specified. Long-term infusion of isoproterenol (Sigma, St. Louis, Mo.) was performed for 7 days at a dose of 60 mg/kg/d with or without AC5 inhibitors by using a miniosmotic pump (ALZET model 2001, DURECT Corp, Cupertino, Calif.). Control mice received vehicle in pumps. Pumps were removed 24 hours before biochemical and physiological studies. Experiments were performed in 3- to 5-month-old male C57Bl/6, and in AC5Tg transgenic mice. This study was approved by the Animal Care and Use Committee at New Jersey Medical School.
(§3) Mice were anesthetized with 2.5% tribromoethanol (0.010 to 0.015 mL per gram of body weight) injected intraperitoneally, and echocardiography was performed with ultrasonography (ACUSON Sequoia C256, Siemens Medical Solutions, Malvern, Pa.). For acute injection of isoproterenol, forskolin and milrinon, a PE-10 catheter was inserted into the right jugular vein, and drugs were injected at the rate of 1 μl/s. cAMP accumulation assay in H9C2 cells, a cardiac myoblast cell line, was examined as previously described.

mice = assay: Basal cardiac function (echocardiography) under chronic drug infusion alone; assay type: in vivo, mouse; details: chronic infusion of drug alone (3 days to 1 week)
Source text: as §1, §2
Mice were anesthetized with 2.5% tribromoethanol (0.010 to 0.015 mL per gram of body weight) injected intraperitoneally, and echocardiography was performed with ultrasonography (ACUSON Sequoia C256, Siemens Medical Solutions, Malvern, Pa.). For acute injection of isoproterenol, forskolin and milrinon, a PE-10 catheter was inserted into the right jugular vein, and drugs were injected at the rate of 1 μl/s. cAMP accumulation assay in H9C2 cells, a cardiac myoblast cell line, was examined as previously described. […]

[3] = test system: C57Bl/6 mice motor function; assay: Rotarod performance test and pole test; assay type: in vivo, mouse; details: Ara-Ade by mini-osmotic pump; MPTP 30 mg/kg i.p. daily for 5 days
Protocol: In C57Bl/6 mice, Ara-Ade was chronically infused with an osmotic mini-pump at the indicated doses for 5 days. a) Each mouse was placed on a rod subjected to evaluate Rotarod performance. Mice were left for 1 min on the rod for habituation. The rod rotated gradually increasing from 4 to 40 rpm over the course of 5 min, and the time that mice could stay without failing was recorded. Five trials were conducted for each individual 10-25 min apart. As a positive control, 1-methyl 4-phenyl 1,2,3,6-tetrahydropyridine (MPTP) was intraperitoneally injected for the indicated dose for 5 days. *, p<0.01 relative to vehicle. #, p<0.05 relative to vehicle. n=6-7. b) To evaluate bradykinesia, a pole test was performed. Mice were placed head upward on the top of a rough surfaced pole that was wrapped with gauze to prevent slipping. The time until the mouse turned completely downward (open bars, TTURN) and the time until it climbed down to the floor (closed bars, TLA) were measured.
Four days after the implantation, Rotarod performance test and pole test were examined as previously described. For MPTP injection (1-methyl 4-phenyl 1,2,3,6-tetrahydropyridine), mice were injected intraperitoneally (i.p.) with 0.1 mL of PBS or MPTP dissolved in PBS at 24-hour intervals for 5 days. The daily dose of MPTP was 30 mg/kg. […]

H9C2 cells = assay: cAMP accumulation in H9C2 cells; assay type: cell-based; details: 5 μM ISO, 3 minutes, 10 μM drug
Source text: […] Fludarabine ((+)-2-Fluoro-9-(5-O-phosphono-β-D-arabinofuranosyl)-9H-purin-6-amine) and Cladribine (2-chloro-2′-deoxyadenosine) are anti-cancer drugs, Adefovir (Bis(2,2-dimethylpropanoyloxymethyl)[2-(6-amino-9H-purin-9-yl)ethoxymethyl]phosphonate) and Zidovudine are anti-HIV drugs. Zidovudine-TP is a metabolite of zidovudine which inhibits virus replication. TP; triphosphate. 3-Deazaadenosine, Formycin A (7-Amino-3-(β-D-ribofuranosyl)-1H-pyrazolo[4,3-d]pyrimidine), 2-Far (2-Fluoroadenosine), formycin A ((2S,3R,4S,5R)-2-(7-amino-2H-pyrazolo[5,4-e]pyramidin-3-yl-5-(hydroxymeth-yl)oxolane-3,4-diol), 2-FD (2-Fluoro-2′-deoxyadenosine) and 2′5′ ddAdo (2′5′-dideoxyadenosine) are experimental drugs.
as §3

AC = assay: cAMP production in membrane preparations from mouse heart; assay type: biochemical; details: 50 μM forskolin, 10 μM drug
Protocol: Such membrane permeability was examined using whole cell, which is addressed in FIG. 11b). cAMP production was measured with 50 μM forskolin in the presence or absence of 10 μM of the indicated drugs. n=2. (b) cAMP accumulation is shown in H9C2 cells. […] Ara-Ade (Adenine 9-β-D-arabinofuranoside) is an anti-herpes simplex drug. Fludarabine ((+)-2-Fluoro-9-(5-O-phosphono-β-D-arabinofuranosyl)-9H-purin-6-amine) and Cladribine (2-chloro-2′-deoxyadenosine) are anti-cancer drugs, Adefovir (Bis(2,2-dimethylpropanoyloxymethyl)[2-(6-amino-9H-purin-9-yl)ethoxymethyl]phosphonate) and Zidovudine are anti-HIV drugs. Zidovudine-TP is a metabolite of zidovudine which inhibits virus replication. TP; triphosphate. 3-Deazaadenosine, Formycin A (7-Amino-3-(β-D-ribofuranosyl)-1H-pyrazolo[4,3-d]pyrimidine), 2-Far (2-Fluoroadenosine), formycin A ((2S,3R,4S,5R)-2-(7-amino-2H-pyrazolo[5,4-e]pyramidin-3-yl-5-(hydroxymeth-yl)oxolane-3,4-diol), 2-FD (2-Fluoro-2′-deoxyadenosine) and 2′5′ ddAdo (2′5′-dideoxyadenosine) are experimental drugs.
Various compounds with adenine-like backbone structure were screened because this structure is essential for both AC inhibition and plasma membrane permeability. Drug effects on AC activity was examined by using membrane preparations from mouse heart and striatum, in which AC5 provides 20% and 80% of total AC activity, respectively. […]

AC2 [4] = details: previously noted; cited from earlier work
AC5 [5] = assay: AC inhibition, recombinant AC proteins: AC5; assay type: biochemical
AC5 [6] = details: cited from earlier work
cardiac myocytes [7] = details: cited from earlier work
cardiac myocytes [8] = assay: ISO-stimulated cAMP accumulation in cultured cardiac myocytes; assay type: cell-based, mouse; details: 10 μM compound
AC5 [9] = molecular target: T1, AC5 (UniProt P30803); assay: AC inhibition, recombinant AC proteins: AC5; assay type: biochemical; details: recombinant AC proteins; read-out: IC50 AC5
T1 construct: IC50 AC5; other: recombinant AC proteins; other: THFA: in the presence of Gs-α/GTPαS/forskolin

AC2 [10] = molecular target: AC2 (UniProt P26769); assay: AC inhibition, recombinant AC proteins: AC2; assay type: biochemical
cardiac myocytes [11] = assay: ISO-induced cell contraction in cultured cardiac myocytes; assay type: cell-based; details: 10 μM
cardiac myocytes [12] = assay: ISO-induced apoptosis in cultured cardiac myocytes (DNA fragmentation ELISA); assay type: cell-based; details: 100 μM ISO, 48 h
Protocol: Cultured cardiac myocytes were incubated with 100 μM ISO in the presence or absence of AC5 inhibitors at the indicated concentrations for 48 h.

AC3 = molecular target: T2, AC3 (Rattus norvegicus, UniProt P21932); assay: AC inhibition, recombinant AC proteins: AC3; assay type: biochemical
T2 construct: made in house
T2 sequence (P21932 whole entry): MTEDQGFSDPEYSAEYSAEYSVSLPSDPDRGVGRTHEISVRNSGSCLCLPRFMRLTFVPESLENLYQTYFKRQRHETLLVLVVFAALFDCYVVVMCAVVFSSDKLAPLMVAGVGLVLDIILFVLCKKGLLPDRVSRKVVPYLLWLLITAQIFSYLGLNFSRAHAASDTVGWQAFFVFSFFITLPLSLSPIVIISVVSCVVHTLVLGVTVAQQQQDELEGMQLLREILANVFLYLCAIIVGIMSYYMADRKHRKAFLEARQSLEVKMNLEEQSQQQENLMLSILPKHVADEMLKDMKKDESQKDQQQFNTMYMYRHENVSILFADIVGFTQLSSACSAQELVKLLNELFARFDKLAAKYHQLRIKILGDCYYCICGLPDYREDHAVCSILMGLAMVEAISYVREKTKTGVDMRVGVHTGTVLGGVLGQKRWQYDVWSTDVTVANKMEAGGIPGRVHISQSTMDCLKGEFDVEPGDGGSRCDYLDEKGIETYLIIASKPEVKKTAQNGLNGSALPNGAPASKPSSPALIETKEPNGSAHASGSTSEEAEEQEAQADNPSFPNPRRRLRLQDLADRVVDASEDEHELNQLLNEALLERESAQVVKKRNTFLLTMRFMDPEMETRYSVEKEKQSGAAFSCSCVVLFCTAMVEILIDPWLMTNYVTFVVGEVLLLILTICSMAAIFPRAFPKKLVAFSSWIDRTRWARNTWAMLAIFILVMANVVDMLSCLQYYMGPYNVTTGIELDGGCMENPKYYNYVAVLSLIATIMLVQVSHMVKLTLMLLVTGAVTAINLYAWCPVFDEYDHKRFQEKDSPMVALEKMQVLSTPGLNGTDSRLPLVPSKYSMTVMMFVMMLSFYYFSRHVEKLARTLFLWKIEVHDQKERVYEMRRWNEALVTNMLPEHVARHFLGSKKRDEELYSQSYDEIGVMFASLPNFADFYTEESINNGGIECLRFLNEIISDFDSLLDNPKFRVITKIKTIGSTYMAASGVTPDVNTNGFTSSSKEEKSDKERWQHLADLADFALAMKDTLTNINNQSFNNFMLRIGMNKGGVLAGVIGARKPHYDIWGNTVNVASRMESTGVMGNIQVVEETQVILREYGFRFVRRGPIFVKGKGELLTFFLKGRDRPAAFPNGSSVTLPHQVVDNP

Compound: CC(C)NCC(O)COc1cccc2ccccc12 (stereo not drawn) [propranolol]
- arrhythmia in low flow perfusion / NE model [1]: effectively reduced arrhythmia
- decrease of sudden cardiac death, patients with a history of HF (patients): 47%
- decrease of sudden cardiac death, patients with a history of MI (patients): 28%

Compound: COCCc1ccc(OCC(O)CNC(C)C)cc1 (stereo not drawn) [metoprolol]
- ISO-induced decrease in LVEF (and FS) [2]: attenuated ISO-induced cardiac dysfunction
- ISO-induced decrease in LVEF (and FS) ([2]; listed as Metoprolol): rescued ISO-induced LVEF decrease
- HR decreased by chronic ISO ([2]; chronic ISO infusion): rescue decreased HR
- ISO-induced myocardial apoptosis in vivo ([2]; chronic ISO infusion): to a lesser degree than Ara-Ade
- ISO-induced wall thickening (DESP, DPW) ([2]; chronic ISO infusion): did not show significant increase
- basal LVEF (mice): decreased

Compound: CN1CC=C(c2ccccc2)CC1 [MPTP, 1-methyl 4-phenyl 1,2,3,6-tetrahydropyridine]
- Rotarod and pole test performance [3]: significantly impaired

Compound: Nc1nccc2c1ncn2[C@@H]1O[C@H](CO)[C@@H](O)[C@H]1O [3-deazaadenosine, 3-Deazaadenosine]
- inhibition of cAMP accumulation in H9C2 cells (H9C2 cells): little inhibition
- ratio of inhibition between the heart membrane and the striatum membrane (AC): less than one

Compound: Nc1ncnc2c1ncn2C1CCCO1 (stereo not drawn) [THFA, 9-(tetrahydro-2-furyl)adenine]
- selectivity ratio between AC6 and AC2 (AC2 [4]): 1.8
- selectivity ratio between AC5 and AC2 (AC5 [5]): 130

Compound: Nc1ncc2c(n1)CC(c1ccco1)CC2=O (stereo not drawn) [NKY80, 2-amino-7-(2-furanyl)-7,8-dihydro-5(6H)-quinazoline]
- inhibition of purified AC5 protein in vitro (AC5 [6]): moderate inhibition
- inhibition of cAMP accumulation in cultured cardiac myocytes (cardiac myocytes [7]): did not inhibit cAMP accumulation

Compound: Nc1ncnc2c1ncn2C1CCC(C(=O)NO)C1 (stereo not drawn) [PMC-6]
- decrease in ISO-induced cAMP production / accumulation in cultured cardiac myocytes (cardiac myocytes [8]): 50%
- IC50 (AC5 [9]): 0.32 µM
- Selectivity ratio for AC5, AC5/AC2 (AC5 [5]; ratio of IC50 for AC5 to that for AC2): 0.0049
- Selectivity ratio for AC5, AC5/AC3 (AC5 [5]; ratio of IC50 for AC5 to that for AC3): 0.029
- IC50 (AC2 [10]): 65.3 µM
- inhibition of ISO-induced cell contraction (cardiac myocytes [11]): did not inhibit
- ISO-induced apoptosis in cultured cardiac myocytes (cardiac myocytes [12]): abolished
- IC50 (AC3): 11.1 µM
